In ChEMBL document CHEMBL1137084, “Synthesis of a 5-methylindolyl-containing macrocycle that displays ultrapotent Grb2 SH2 domain-binding affinity” (J Med Chem, 2004):

Legend:
[1] = target: T1, Growth factor receptor-bound protein 2 (Homo sapiens, UniProt P62993); test: In vitro binding affinity for Grb2 SH2 domain
[2] = target: T1, Growth factor receptor-bound protein 2; test: In vitro binding affinity in whole cells for Grb2 SH2 domain; type: cell-based
[3] = target: T1, Growth factor receptor-bound protein 2; test: In vitro binding affinity in extracellular ELISA-based assay for Grb2 SH2 domain
[4] = target: T1, Growth factor receptor-bound protein 2; test: Inhibition of Grb2 SH2 domain binding to erbB-2
[5] = system: MDA-MB-453; test: Inhibition of growth-factor-stimulated MDA-MB-453 breast cancer cell proliferation; type: functional, cell-based; conditions: Homo sapiens

Kd [1] | IC50 [2] | IC50 [3] | IC50 [4] | IC50 [5] | Compound
0.075 nM |  |  |  |  | Cc1ccc2c(ccn2C[C@@H]2C/C=C/[C@H](c3ccc(CP(=O)(O)O)cc3)[C@H](CC(=O)O)C(=O)NC3(CCCCC3)C(=O)N[C@@H](CC(N)=O)C(=O)NC2)c1 [listing 1 of 2 here]
 | ≤ 1 µM | 2 nM |  |  | NC(=O)C[C@@H]1NC(=O)C2(CCCCC2)NC(=O)[C@@H](CC(=O)O)[C@@H](c2ccc(CP(=O)(O)O)cc2)/C=C/C[C@@H](Cc2cccc3ccccc23)CNC1=O
0.093 nM |  |  | ≤ 10 nM | 600 nM | Cc1ccc2c(ccn2C[C@@H]2C/C=C/[C@H](c3ccc(CP(=O)(O)O)cc3)[C@H](CC(=O)O)C(=O)NC3(CCCCC3)C(=O)N[C@@H](CC(N)=O)C(=O)NC2)c1 [listing 2 of 2 here]
 | ≥ 10 µM |  |  |  | NC(=O)C[C@@H]1NC(=O)C2(CCCCC2)NC(=O)C[C@@H](c2ccc(CP(=O)(O)O)cc2)/C=C/C[C@@H](Cc2cccc3ccccc23)CNC1=O
